Experimental data taken from ChEMBL document CHEMBL1201862, “PubChem BioAssay data set” (2004).
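Cultured in 96-well plates, cells were exposed to test compound for 48 hours across five concentrations. At the GI50, growth is halved.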 Calls of active or inactive are those of the source. Cut-off read from the data, not from the text of the source: active = GI50 up to about 1.1 µM and inactive = higher.

What was measured:
Assay in all cases: inhibition of tumour cell growth, NCI panel, 48 h
SN12C = system: SN12C
NCI-H226 = system: NCI-H226
NCI-H23 = system: NCI-H23
HCC 2998 = system: HCC 2998
HL-60 = system: HL-60
CCRF-CEM = system: CCRF-CEM
NCI-H460 = system: NCI-H460
ACHN = system: ACHN
OVCAR-5 = system: OVCAR-5
SF-295 = system: SF-295
SNB-19 = system: SNB-19
U-251 = system: U-251
HCT-15 = system: HCT-15
HOP-92 = system: HOP-92
SK-MEL-5 = system: SK-MEL-5
A498 = system: A498
SK-OV-3 = system: SK-OV-3
SR = system: SR
Malme-3M = system: Malme-3M
NCI-H522 = system: NCI-H522

Structure (SMILES) | GI50 (SN12C) | GI50 (NCI-H226) | GI50 (NCI-H23) | GI50 (HCC 2998) | GI50 (HL-60) | GI50 (CCRF-CEM) | GI50 (NCI-H460) | GI50 (ACHN) | GI50 (OVCAR-5) | GI50 (SF-295) | GI50 (SNB-19) | GI50 (U-251) | GI50 (HCT-15) [µM] | GI50 (HOP-92) | GI50 (SK-MEL-5) | GI50 (A498) | GI50 (SK-OV-3) | GI50 (SR) | GI50 (Malme-3M) | GI50 (NCI-H522)
CCOC(=O)CC1C(C(=O)OCC)=Cn2c([nH]c3cccc4cccc2c43)=C1C(=O)OCC (stereo unspecified) | > 100 µM (inactive) | > 100 µM (inactive) | > 100 µM (inactive) | > 100 µM (inactive) | 25.3 µM (inactive) | > 100 µM (inactive) | > 100 µM (inactive) | > 100 µM (inactive) | > 100 µM (inactive) | > 100 µM (inactive) | > 100 µM (inactive) | > 100 µM (inactive) | > 100 | > 100 µM (inactive) | 33.7 µM (inactive) | > 100 µM (inactive) | > 100 µM (inactive) | > 100 µM (inactive) |  | 
COC(=O)CSSCc1ccc([N+](=O)[O-])cc1 | 14.8 µM (inactive) |  | 32 µM (inactive) | 21.4 µM (inactive) | 21.1 µM (inactive) | 5.6 µM (inactive) | 33.7 µM (inactive) | 16.3 µM (inactive) | 19.4 µM (inactive) | 19 µM (inactive) | 26.8 µM (inactive) | 12.3 µM (inactive) | 16.7 | 27.1 µM (inactive) | 17.7 µM (inactive) | 21.6 µM (inactive) | 20.8 µM (inactive) | 12 µM (inactive) | 29.6 µM (inactive) | 13.4 µM (inactive)
Clc1ccc(COC(Cn2ccnc2)c2ccc(Cl)cc2Cl)cc1 (stereo unspecified) [ECONAZOLE NITRATE] | 12.1 µM (inactive) |  | 13.2 µM (inactive) | 15.6 µM (inactive) | 4.19 µM (inactive) | 5.87 µM (inactive) | 10.7 µM (inactive) | 12.8 µM (inactive) | 14.5 µM (inactive) | 9.57 µM (inactive) | 14.9 µM (inactive) | 12.6 µM (inactive) | 12.8 | 11.8 µM (inactive) |  | 11.6 µM (inactive) | 19.7 µM (inactive) | 3.49 µM (inactive) | 16.4 µM (inactive) | 8.24 µM (inactive)
N#CC1(Cc2ccccc2Cl)c2ccccc2C=CN1C(=O)c1ccccc1 (stereo unspecified) | 77.8 µM (inactive) | > 100 µM (inactive) | 28.2 µM (inactive) | > 100 µM (inactive) | 29 µM (inactive) | 57.4 µM (inactive) |  | 90.8 µM (inactive) | > 100 µM (inactive) | 81.8 µM (inactive) | > 100 µM (inactive) | 48.9 µM (inactive) | 98.6 | 52.7 µM (inactive) | 47.4 µM (inactive) | > 100 µM (inactive) | > 100 µM (inactive) | 45.5 µM (inactive) | 34.1 µM (inactive) | 86.1 µM (inactive)
[N-]=[N+]=NC1(c2ccccc2)C(=O)C(Cl)=C(c2ccccc2)N(c2ccccc2)C1=O (stereo unspecified) | > 100 µM (inactive) |  | 64.9 µM (inactive) | > 100 µM (inactive) | 43.1 µM (inactive) | 59.7 µM (inactive) | > 100 µM (inactive) | > 100 µM (inactive) | > 100 µM (inactive) | > 100 µM (inactive) | > 100 µM (inactive) | > 100 µM (inactive) | > 100 | > 100 µM (inactive) | > 100 µM (inactive) | > 100 µM (inactive) | 31.3 µM (inactive) | 65.5 µM (inactive) | > 100 µM (inactive) | 41.2 µM (inactive)
c1cc(-c2csc(-c3ccsc3)c2)cs1 | > 100 µM (inactive) | 13.5 µM (inactive) | > 100 µM (inactive) | 42.5 µM (inactive) | > 100 µM (inactive) | > 100 µM (inactive) | > 100 µM (inactive) | > 100 µM (inactive) | 88.9 µM (inactive) | > 100 µM (inactive) | 53.1 µM (inactive) | > 100 µM (inactive) | > 100 | > 100 µM (inactive) | > 100 µM (inactive) | > 100 µM (inactive) | > 100 µM (inactive) | > 100 µM (inactive) |  | 
